Assays:
[1] = target: B-Raf (V600E) (Homo sapiens (Human), UniProt P15056, V600E); assay: KINOMEscan binding of kinase to its standard ligand
Protocol: (§1) Kinase enzyme binding activities of compounds disclosed herein may be determined using a proprietary assay which measures active site-directed competition binding to an immobilized ligand (Fabian, M. A. et al., Nature Biotechnol., 2005, 23:329-336). These assays may be conducted by DiscoverX (formerly Ambit; San Diego, Calif.). The percentage inhibition produced by incubation with a test compound may be calculated relative to the non-inhibited control.

[2] = target: B-Raf (Homo sapiens (Human), UniProt P15056); assay: as above
Sequence of B-Raf (P15056 whole entry): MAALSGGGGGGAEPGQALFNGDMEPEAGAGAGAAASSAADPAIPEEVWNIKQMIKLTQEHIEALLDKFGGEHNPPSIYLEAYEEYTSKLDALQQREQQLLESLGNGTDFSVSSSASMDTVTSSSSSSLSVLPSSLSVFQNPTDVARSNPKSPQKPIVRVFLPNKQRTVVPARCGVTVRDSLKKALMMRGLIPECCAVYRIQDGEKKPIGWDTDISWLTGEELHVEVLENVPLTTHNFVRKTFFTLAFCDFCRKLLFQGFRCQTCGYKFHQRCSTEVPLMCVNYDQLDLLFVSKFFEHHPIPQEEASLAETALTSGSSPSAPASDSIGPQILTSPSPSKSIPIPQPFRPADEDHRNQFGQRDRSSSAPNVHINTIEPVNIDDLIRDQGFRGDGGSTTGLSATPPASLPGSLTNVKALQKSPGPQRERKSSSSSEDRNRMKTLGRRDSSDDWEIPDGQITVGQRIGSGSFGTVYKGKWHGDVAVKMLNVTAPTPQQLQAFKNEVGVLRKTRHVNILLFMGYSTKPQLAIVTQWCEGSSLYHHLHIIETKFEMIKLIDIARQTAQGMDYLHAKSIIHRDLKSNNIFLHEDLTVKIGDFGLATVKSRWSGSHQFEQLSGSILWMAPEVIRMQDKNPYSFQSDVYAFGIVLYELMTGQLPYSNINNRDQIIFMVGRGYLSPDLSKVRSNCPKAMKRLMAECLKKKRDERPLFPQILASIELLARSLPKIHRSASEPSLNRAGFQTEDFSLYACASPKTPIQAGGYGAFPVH
Protocol: as §1

[3] = target: p38 MAPKα (MAPK14) (Homo sapiens (Human), UniProt Q16539); assay: p38 MAPKα enzyme inhibition (FRET, Z-LYTE; Method 2); format: biochemical
Sequence of p38 MAPKα (MAPK14) (Q16539 whole entry): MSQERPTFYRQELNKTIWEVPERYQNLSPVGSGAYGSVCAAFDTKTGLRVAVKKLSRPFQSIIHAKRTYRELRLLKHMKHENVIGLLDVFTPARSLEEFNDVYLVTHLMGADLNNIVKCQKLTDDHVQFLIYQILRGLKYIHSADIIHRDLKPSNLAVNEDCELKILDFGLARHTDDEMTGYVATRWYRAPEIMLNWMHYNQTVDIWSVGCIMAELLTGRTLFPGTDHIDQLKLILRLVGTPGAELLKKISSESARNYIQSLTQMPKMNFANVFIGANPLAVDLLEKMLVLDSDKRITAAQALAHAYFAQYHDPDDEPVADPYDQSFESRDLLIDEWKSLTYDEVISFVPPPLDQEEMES

[4] = tested on: TNBS-induced colitis in BDF1 mice; assay: TNBS-induced colitis in mice (in vivo iv); design: species or system mouse; details: for inflammatory cell infiltrate in the reticular and laminar propria zones / ulcer grade and epithelial repair compared to the vehicle control: 5 mg/kg orally, 2 days; for inflammatory cell infiltrate in the reticular and laminar propria zones / ulcer grade and epithelial repair compared to the vehicle control / activity in in vivo model of colonic inflammation (histopathology analysis): TNBS-induced colitis, mice; for LP inflammation / Ulcer grade: TNBS-induced colitis in mice; for activity in in vivo model of colonic inflammation (histopathology analysis): conducted over 2 days
Protocol: Non-fasted, 10-12 week old, male BDF1 mice are dosed by oral gavage twice daily with either vehicle (5 mL/kg), reference item (Budesonide 2.5 mg/kg) or test compound (1 or 5 mg/kg) one day before (Day −1) stimulation of the inflammatory response by treatment with 2,4,6-trinitrobenzenesulphonic acid (TNBS) (15 mg/mL in 50% ethanol/50% saline). On Day 0 of the study TNBS (200 μL) is administered intra-colonically via a plastic catheter with BID dosing of the vehicle, reference or test compound continuing for 2 or 4 days. During the study, animals are weighed every day and stool observations are made and recorded as a score, based on stool consistency. At the time of sacrifice on Day 2 (or Day 4), the large intestine is removed and the length and weight recorded. Sections of the colon are taken for histopathology scoring to determine disease severity.

[5] = target: c-Src (Homo sapiens (Human), UniProt P12931); assay: c-Src enzyme inhibition (FRET, Z-LYTE); format: biochemical
Sequence of c-Src (P12931 whole entry, looked up): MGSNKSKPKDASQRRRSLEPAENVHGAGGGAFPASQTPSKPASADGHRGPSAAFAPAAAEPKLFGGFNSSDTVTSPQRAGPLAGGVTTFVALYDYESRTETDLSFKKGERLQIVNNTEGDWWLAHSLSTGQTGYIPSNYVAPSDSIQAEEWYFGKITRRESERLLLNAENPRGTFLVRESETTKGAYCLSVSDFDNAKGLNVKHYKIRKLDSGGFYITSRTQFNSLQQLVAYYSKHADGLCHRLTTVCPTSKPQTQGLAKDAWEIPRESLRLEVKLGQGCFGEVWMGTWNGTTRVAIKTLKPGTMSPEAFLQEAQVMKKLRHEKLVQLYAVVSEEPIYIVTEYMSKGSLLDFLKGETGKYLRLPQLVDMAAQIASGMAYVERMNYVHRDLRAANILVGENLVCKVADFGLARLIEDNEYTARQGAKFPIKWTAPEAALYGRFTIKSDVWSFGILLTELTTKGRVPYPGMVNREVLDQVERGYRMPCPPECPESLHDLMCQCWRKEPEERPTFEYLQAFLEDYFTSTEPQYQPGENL
How it was run: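 Syk or c-Src enzyme (3000 or 2000 ng/mL solutions) was preincubated 2 h at RT with compound solutions at 1, 0.1, 0.01 or 0.001 µg/mL. Z-LYTE FRET peptide (8 µM solution) and ATP (800 µM solution for c-Src, 60 µM for Syk) were then added for 1 h, followed by protease development for 1 h. Phosphorylation was read as the coumarin/fluorescein emission ratio.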

[6] = target: human ether a go-go (hERG) channel (Homo sapiens (Human), UniProt Q12809); assay: hERG inhibition (IonWorks patch clamp electrophysiology); format: cell-based; details: IonWorks patch clamp
Sequence of human ether a go-go (hERG) channel (Q12809 whole entry): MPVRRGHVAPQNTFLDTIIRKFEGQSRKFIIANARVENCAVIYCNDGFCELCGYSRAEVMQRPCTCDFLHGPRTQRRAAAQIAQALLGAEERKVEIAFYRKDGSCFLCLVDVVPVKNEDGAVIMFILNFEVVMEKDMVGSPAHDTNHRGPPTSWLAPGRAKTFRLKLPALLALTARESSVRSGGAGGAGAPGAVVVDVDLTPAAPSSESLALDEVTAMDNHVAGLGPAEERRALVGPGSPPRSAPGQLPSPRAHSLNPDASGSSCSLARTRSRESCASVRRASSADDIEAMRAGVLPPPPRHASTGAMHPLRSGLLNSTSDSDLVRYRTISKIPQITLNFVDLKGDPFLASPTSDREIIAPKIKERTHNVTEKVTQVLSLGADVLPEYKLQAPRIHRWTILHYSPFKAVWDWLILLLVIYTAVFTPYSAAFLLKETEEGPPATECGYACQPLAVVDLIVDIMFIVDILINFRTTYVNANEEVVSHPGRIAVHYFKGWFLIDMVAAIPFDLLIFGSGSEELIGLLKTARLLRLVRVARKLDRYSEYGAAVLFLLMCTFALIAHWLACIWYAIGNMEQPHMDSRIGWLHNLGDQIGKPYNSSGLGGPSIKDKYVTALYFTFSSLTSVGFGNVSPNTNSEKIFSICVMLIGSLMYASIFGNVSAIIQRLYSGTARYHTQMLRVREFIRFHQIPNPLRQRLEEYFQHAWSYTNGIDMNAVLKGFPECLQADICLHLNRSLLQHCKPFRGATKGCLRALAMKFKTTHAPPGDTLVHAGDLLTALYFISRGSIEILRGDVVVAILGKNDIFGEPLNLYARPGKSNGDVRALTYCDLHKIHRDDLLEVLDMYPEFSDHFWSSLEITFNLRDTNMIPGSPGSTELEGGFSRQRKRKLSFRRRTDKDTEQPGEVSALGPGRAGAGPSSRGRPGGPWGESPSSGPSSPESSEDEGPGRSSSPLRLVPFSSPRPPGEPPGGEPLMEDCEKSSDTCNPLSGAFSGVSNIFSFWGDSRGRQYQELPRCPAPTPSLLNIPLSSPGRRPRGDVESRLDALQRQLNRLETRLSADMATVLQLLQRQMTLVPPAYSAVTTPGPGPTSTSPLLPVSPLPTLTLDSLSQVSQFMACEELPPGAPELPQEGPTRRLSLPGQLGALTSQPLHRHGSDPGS
Protocol: (§2) Compounds of the invention were tested for inhibition of the human ether a go-go (hERG) channel using IonWorks™ patch clamp electrophysiology at Essen Bioscience (Welwyn Garden City, England).

[7] = target: hERG channel (Homo sapiens (Human), UniProt Q12809); assay: as above; format: cell-based; details: human, 3 μM
Sequence of hERG channel (Q12809 whole entry): as above
Protocol: as §2

[8] = tested on: intestinal mucosa biopsies from the inflamed regions of the colon of ulcerative colitis (IBD) patients; assay: Human biopsy assay (assay l); format: cell-based; details: 1 μg/mL; for cytokine (IL-1β, IL-6 and IL-8) release compared to the DMSO control: 24 hours, biopsies from ulcerative colitis patients; for Cytokine release from biopsies of UC patients: IL-1β release / Cytokine release from biopsies of UC patients: IL-6 release / Cytokine release from biopsies of UC patients: IL-8 release: 24 hr, relative to DMSO control = 100%
Protocol: Intestinal mucosa biopsies are obtained from the inflamed regions of the colons of IBD patients. The biopsy material is cut into small pieces (2-3 mm) and placed on steel grids in an organ culture chamber at 37° C. in a 5% CO2/95% O2 atmosphere in serum-free media. DMSO control or test compounds at the desired concentration are added to the tissue and incubated for 24 hr in the organ culture chamber. The supernatant is harvested for determination of IL-6, IL-8, IL-1β and TNFα levels by R&D ELISA.

[9] = Hydrolytic stability study; format: physicochemical; details: DMSO:water (3:1), 1 mg/mL
Protocol: Chemical stability of compounds of the invention was assessed in a mixture of DMSO and water (3:1) at a test compound concentration of 1 mg/mL
Sample Preparation • A 1.0 mg sample of test compound was dissolved in 750 μL of DMSO. Water (250 μL) was added slowly, ensuring no precipitation occurred.
Recording Stability • A 50 μL aliquot of the test solution was removed and analysed in duplicate by 5 μL HPLC injections. The peak area for the test compound was recorded following manual integration of the corresponding UV trace. • The test solution was heated to 60° C., with stirring, and 50 μL aliquots removed for HPLC analysis at 5 and 24 h timepoints.

Sequence of B-Raf (V600E) (P15056 whole entry V600E): as the sequence (P15056 whole entry) above, with V600E counted along it

SMILES | effect on the binding of the kinase B-Raf (V600E) to its standard ligand [1] | effect on the binding of the kinase B-Raf to its standard ligand [2] | IC50 [3] [nM] | inflammatory cell infiltrate in the reticular and laminar propria zones [4] | ulcer grade and epithelial repair compared to the vehicle control [4] | LP inflammation ([4]; 5 mg/kg oral) | Ulcer grade ([4]; 5 mg/kg oral) | activity in in vivo model of colonic inflammation (histopathology analysis) [4] | IC50 [5] [nM] | IC50 [6] [nM] | inhibition at 3 µM [7] [%] | cytokine (IL-1β, IL-6 and IL-8) release compared to the DMSO control [8] | Cytokine release from biopsies of UC patients: IL-1β release [8] [%] | Cytokine release from biopsies of UC patients: IL-6 release [8] [%] | Cytokine release from biopsies of UC patients: IL-8 release [8] [%] | % Parent Remaining ([9]; 0 min) [%] | % Parent Remaining ([9]; 60° C., 300 min) [%] | % Parent Remaining ([9]; 60° C., 1440 min) [%] | LP inflammation ([4]; 1 mg/kg oral) | Ulcer grade ([4]; 1 mg/kg oral)
COCCOCCOCCNC(=O)c1cc(Nc2cc(Oc3ccc(NC(=O)Nc4cc(C(C)(C)C)cc(NS(C)(=O)=O)c4OC)c4ccccc34)ccn2)cc(OC)c1 [Example 3, 3-((4-((4-(3-(5-(tert-Butyl)-2-methoxy-3-(methylsulfonamido)phenyl)ureido)naphthalen-1-yl)oxy)pyridin-2-yl)amino)-5-methoxy-N-(2-(2-(2-methoxyethoxy)ethoxy)ethyl)benzamide] | did not have any significant effect | did not have any significant effect | 87 | marked reduction | marked improvements | 3.8 ± 0.5 | 3.7 ± 0.4 | substantial activity | 20 | > 3000 | -2 ± 2 | – | – | – | – | – | – | – | – | –
COCCOCCOCCOc1cc(Nc2nccc(Oc3ccc(NC(=O)Nc4cc(C(C)(C)C)cc(NS(C)(=O)=O)c4OC)c4ccccc34)n2)cc(OC)c1 [Example 4, N-(5-(tert-Butyl)-2-methoxy-3-(3-(4-((2-((3-methoxy-5-(2-(2-(2-methoxyethoxy)ethoxy)-ethoxy)phenyl)amino)pyrimidin-4-yl)oxy)naphthalen-1-yl)ureido)phenyl)methanesulfonamide] | did not have any significant effect | did not have any significant effect | 91 | marked reduction | marked improvements | – | – | substantial activity | 14 | > 3000 | -4 ± 2 | significantly inhibited | 17 ± 21 | 5 ± 1 | 2 ± 1 | 100 | 103 | 102 | 2.6 ± 0.3 | 3.6 ± 0.4
C#Cc1cc(Nc2nccc(Oc3ccc(NC(=O)Nc4cc(C(C)(C)C)cc(NS(C)(=O)=O)c4OC)c4ccccc34)n2)cc(C(=O)NCCOCCOCCOC)c1 [Example 16] | did not have any significant effect | did not have any significant effect | – | marked reduction | marked improvements | – | – | substantial activity | – | – | – | significantly inhibited | – | – | – | 100 | 100 | 100 | – | –
COc1cc(Nc2cc(Oc3ccc(NC(=O)Nc4cc(C(C)(C)C)cc(NS(C)(=O)=O)c4OC)c4ccccc34)ccn2)cc(C(=O)NCCN2CCOCC2)c1 [Example 27] | did not have any significant effect | did not have any significant effect | 41 | marked reduction | marked improvements | 3.2 ± 0.4 | 3.3 ± 0.5 | substantial activity | 26 | > 3000 | -3 ± 5 | significantly inhibited | 11 ± 54 | 48 ± 26 | 60 ± 15 | 100 | 102 | 102 | – | –
COc1c(NC(=O)Nc2ccc(Oc3ccnc(Nc4ccccc4)c3)c3ccccc23)cc(C(C)(C)C)cc1C(=O)NC1COC1 [Example 75, 5-(tert-Butyl)-2-methoxy-N-(oxetan-3-yl)-3-(3-(4-((2-(phenylamino)pyridin-4-yl)oxy)-naphthalen-1-yl)ureido)benzamide] | did not have any significant effect | did not have any significant effect | 123 | marked reduction | marked improvements | 2.3 ± 0.4 | 3.0 ± 0.4 | substantial activity | 97 | > 3000 | 0 | – | – | – | – | 100 | 101 | 99 | – | –

From US9481648B2, “Kinase inhibitors” (Respivert Limited, priority 2013, dated 2016)
